Results taken from PubChem BioAssay AID2060908 (Molecular Pharmacology Branch, DTP, NCI, 2025).
Where “and” joins values, the source holds several entries; their conditions need not be identical. Identical values can stand only once.

Test system: 186277-243-T-J2-PDC complex spheroids, viability
Experiment: Anticancer human tumor 186277-243-T-J2-PDC patient-derived colon adenocarcinoma cell line growth inhibition [RAS]
Conditions: for viability, T/C: stronger effect = lower value
Description: RAS pathway inhibitors in Combinations in Complex Spheroids
A high-throughput screen of multi-cell type tumor spheroids was designed to identify active combinations of RAS pathway inhibitors and targeted small molecules. Complex spheroids include a stromal component modeled by human endothelial cells (HUVEC) and fibroblasts modeled by human mesenchymal stem cells (MSCs). The concentration ranges selected for each drug and investigational agent were based upon clinically achievable concentrations if the clinical Cmax of the agent was known.
Compounds. The drugs and investigational agents: abemaciclib (NSC768073), cobimetinib (NSC768068), divarasib (GDC6063, NSC841802), docetaxel (NSC628503), GDC-1971 (RLY-1971, NSC841576), gemcitabine (NSC613327), inavolisib (NSC800729), ipatasertib (NSC767898), KB-0742 (NSC834161), MRTX-1133 (NSC836407), osimertinib (NSC779217), RMC-4630 (NSC839698), RMC-6236 (NSC851965), RMC-6291 (NSC852671), Ro-3306 (NSC812927), sapanisertib (NSC764658), SN-38 (NSC673596), staurosporine (NSC755774), SY5609 (NSC837396), and tovorafenib (DAY101, NSC766906), were obtained from the National Cancer Institute (NCI) Developmental Therapeutics Program Chemical Repository. The FDA-approved anticancer drug set is available from the NCI Developmental Therapeutics Program. […] The stock solutions were prepared in dimethyl sulfoxide (DMSO, Sigma-Aldrich, St. Louis, MO, cat. D2650) at 800-fold the tested concentration and stored at -70 degrees C prior to their use. All drugs and investigational agents were tested over a range starting from a high concentration at or near the clinical Cmax and decreasing in half-log increments. If the clinical Cmax for an agent had not been determined, the highest concentration tested was 10 microM.
Cell Culture. All cells were maintained in an incubator at 37 degrees C and 5% CO2 with 95% humidity. The PDC lines were cultured according to standard operating procedures established by the NCI PDMR. All PDCs were thawed and cultured in Matrigel-coated flasks prepared with a working solution of 1X Ham's F-12 nutrient mix, without supplementation (Invitrogen, Waltham, MA, cat. 11765054), 100 U/mL penicillin-streptomycin (Invitrogen, cat. 15140122), and 2.5% Matrigel (Corning Inc., Corning, NY, cat. 354248) for the first three passages. The 362531-283-R-J2-PDC and 782815-120-R-J1-PDC lines were cultured in 6C/Colon 1B media, which includes advanced DMEM/F-12 (Thermo Fisher Scientific, cat. 12634028), 10 mM HEPES (Thermo Fisher Scientific, cat. 15630080), 1X GlutaMAX supplement (Thermo Fisher Scientific, cat. 35050061), 0.1 mg/mL primocin (InvivoGen, San Diego, CA, cat. ant-pm-2), 10% defined fetal bovine serum, heat inactivated (HyClone Laboratories Inc., Logan, UT, cat. SH30070.03HI), 50% L-WRN conditioned media (ATCC, cat. CRL-3276), 1.25 mM N-Acetyl-L-cysteine (Sigma-Aldrich, cat. A9165), 10 mM nicotinamide (Sigma-Aldrich, cat. N0636), 1X B-27 supplement (Thermo Fisher Scientific, cat. 17504044), 1X N-2 supplement (Thermo Fisher Scientific, cat. 17502048), 50 ng/mL human EGF (Thermo Fisher Scientific, cat. PHG0311), and 10 microM Y-27632 dihydrochloride (Tocris Bioscience, cat. 1254). The K12877-001-R-J1-PDC line was cultured in 6I media, which includes all 6C/Colon 1B media plus 10 ng/mL human FGF-10 (PeproTech, cat. 100-26), 1 ng/mL human FGF-2 (PeproTech, cat. 100-18B), 1 µM prostaglandin E2 (Tocris Bioscience, cat. 2296), […] hydrocortisone (Sigma-Aldrich, cat. H4001), and […] bovine insulin (Sigma-Aldrich, cat. I6634). The K86415-001-R-J1-PDC line was cultured in 6D media, which includes all 6C/Colon 1B media components minus the L-WRN conditioned media. The 485176-168-R4-J1-PDC was cultured in PANC media, which includes all 6C/Colon 1B media plus 100 ng/mL human FGF-10 (PeproTech, cat. 100-26), 500 nM SB-431542 (Selleckchem, cat. S1067), and 10 nM gastrin (Tocris Bioscience, cat. 3006). […]
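Further: spheroids exposed to compounds for 7 days before viability read.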

Cc1nc(N2CCC3(CC2)COC(C)C3N)c(CO)nc1Sc1ccnc(N)c1Cl (configuration not stated)
viability, T/C (compound 0.0316 µM): 101% [middle of 4 runs]
viability, T/C (compound 0.316 µM): 107% [middle of 4 runs]
viability, T/C (compound 1 µM): 110% (2×) and 105% and 119%
viability, T/C (compound 3.16 µM): 119% (2×) and 105% and 91.9%
IC50 (curve of compound): > 10000 nM

CC(C)NCC(C(=O)N1CCN(c2ncnc3c2C(C)CC3O)CC1)c1ccc(Cl)cc1 (configuration not stated) + CCn1c(-c2cc(N3CCN(C)CC3)cnc2C(C)OC)c2c3cc(ccc31)-c1csc(n1)CC(NC(=O)C1CC1C)C(=O)N1CCCC(N1)C(=O)OCC(C)(C)C2
IC50 (curve of first compound, second compound 0.000949 µM): 841 nM
IC50 (curve of first compound, second compound 0.003 µM): 467 nM
IC50 (curve of first compound, second compound 0.00949 µM): 69.2 nM
IC50 (curve of first compound, second compound 0.03 µM): < 31.6 nM
IC50 (curve of first compound, second compound 0.0949 µM): < 31.6 nM
IC50 (curve of first compound, second compound 0.3 µM): < 31.6 nM
viability, T/C (second compound 0.000949 µM, first compound 0.0316 µM): 111%
viability, T/C (second compound 0.000949 µM, first compound 0.1 µM): 101%
viability, T/C (second compound 0.000949 µM, first compound 0.316 µM): 74.8%
viability, T/C (second compound 0.000949 µM, first compound 1 µM): 42.8%
viability, T/C (second compound 0.000949 µM, first compound 3.16 µM): 34.8%
viability, T/C (second compound 0.000949 µM, first compound 10 µM): 20.4%
viability, T/C (second compound 0.003 µM, first compound 0.0316 µM): 98.6%
viability, T/C (second compound 0.003 µM, first compound 0.1 µM): 81.6%
viability, T/C (second compound 0.003 µM, first compound 0.316 µM): 58.8%
viability, T/C (second compound 0.003 µM, first compound 1 µM): 33.8%
viability, T/C (second compound 0.003 µM, first compound 3.16 µM): 16.1%
viability, T/C (second compound 0.003 µM, first compound 10 µM): 7.85%
viability, T/C (second compound 0.00949 µM, first compound 0.0316 µM): 51.6%
viability, T/C (second compound 0.00949 µM, first compound 0.1 µM): 51%
viability, T/C (second compound 0.00949 µM, first compound 0.316 µM): 28%
viability, T/C (second compound 0.00949 µM, first compound 1 µM): 11.4%
viability, T/C (second compound 0.00949 µM, first compound 3.16 µM): 4.9%
viability, T/C (second compound 0.00949 µM, first compound 10 µM): 1.96%
viability, T/C (second compound 0.03 µM, first compound 0.0316 µM): 13.1%
viability, T/C (second compound 0.03 µM, first compound 0.1 µM): 15.3%
viability, T/C (second compound 0.03 µM, first compound 0.316 µM): 7.36%
viability, T/C (second compound 0.03 µM, first compound 1 µM): 3.74%
viability, T/C (second compound 0.03 µM, first compound 3.16 µM): 1.65%
viability, T/C (second compound 0.03 µM, first compound 10 µM): 0.66%
viability, T/C (second compound 0.0949 µM, first compound 0.0316 µM): 6.83%
viability, T/C (second compound 0.0949 µM, first compound 0.1 µM): 6.82%
viability, T/C (second compound 0.0949 µM, first compound 0.316 µM): 4.35%
viability, T/C (second compound 0.0949 µM, first compound 1 µM): 2.2%
viability, T/C (second compound 0.0949 µM, first compound 3.16 µM): 1.09%
viability, T/C (second compound 0.0949 µM, first compound 10 µM): 0.38%
viability, T/C (second compound 0.3 µM, first compound 0.0316 µM): 6.18%
viability, T/C (second compound 0.3 µM, first compound 0.1 µM): 5.27%
viability, T/C (second compound 0.3 µM, first compound 0.316 µM): 3.57%
viability, T/C (second compound 0.3 µM, first compound 1 µM): 1.82%
viability, T/C (second compound 0.3 µM, first compound 3.16 µM): 0.88%
viability, T/C (second compound 0.3 µM, first compound 10 µM): 0.37%
